{"source": "PubChem BioAssay AID743394", "about": "(Broad Institute, 2014)", "note": "Calls of active or inactive are those of the source.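 Rule for the calls: active = 40% activation versus positive control reached by fitted dose-response curve at or below highest valid tested dose; inconclusive = poor fit quality, or flat fit with activation between 30% and 70%; inactive = the rest.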"}
{"test_system": "68-5-11 mouse fibroblast XiGFP reporter, % GFP-positive imaging, 3 d", "experiment": "Xi-linked GFP reactivating small molecules – imaging, 68-5-11 mouse fibroblasts, cherry-pick, dose response (AID 743394);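 note: sensitizer 5-aza-dC present in the wells at 0.5 mM final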", "details": "not given", "units": {"AC40": "µM"}}
{"compound": "CC1=CC(=Cc2sc3ccccc3[n+]2C)C=C(C)O1", "AC40": 7.67}
{"test_system": "68-5-11 mouse fibroblast XiGFP reporter, % GFP-positive imaging, 3 d", "experiment": "Xi-linked GFP reactivating small molecules – imaging, 68-5-11 mouse fibroblasts, cherry-pick, dose response (AID 743394);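 note: sensitizer 5-aza-dC present in the wells at 0.5 mM final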", "details": "cells co-treated with 5-aza-dC sensitizer"}
{"compound": "O=C(NCc1ccccc1)c1cccc2c1C(=O)c1ccc(/C=C/c3ccccc3)cc1S2(=O)=O", "AC40": "8.5 µM"}
{"compound": "CCN1/C(=C/c2ccc3cc(C)ccc3[n+]2CC)Sc2cc(C)ccc21", "AC40": "2.16 µM"}
{"compound": "N#C/C(=C/c1ccc(-c2ccc(S(N)(=O)=O)cc2)o1)c1nc2ccccc2s1", "AC40": "1.17 µM"}
{"compound": "C#Cc1cc(N2CCN(C(=O)c3ccoc3)CC2)n2nc(-c3cccc(Cl)c3)cc2n1", "AC40": "8.99 µM"}
{"compound": "Cc1ccc2c(c1)c(/C=C/c1cc[n+](C)cc1)c(C)n2C", "AC40": "2.65 µM"}
{"compound": "O=[N+]([O-])c1ccc(N/N=C/c2sc(N3CCOCC3)nc2-c2ccccc2)c(S(=O)(=O)Nc2ccc(Cl)cc2)c1", "AC40": "1.72 µM"}
{"compound": "COc1cc(N2CCCC2)c(OC)cc1/C=C1/NC(=S)NC1=O", "AC40": "> 19.5 µM (inactive)"}
{"compound": "CCOCCCNC(=O)/C(C#N)=C/c1ccc([N+](=O)[O-])o1", "AC40": "> 19.5 µM (inactive)"}
{"compound": "Cc1nnc(N2C(=O)c3cccc4c([N+](=O)[O-])ccc(c34)C2=O)s1", "AC40": "> 19.5 µM (inactive)"}
{"compound": "O=[N+]([O-])c1ccc(N2N=C(c3ccccc3)CC2c2ccccc2O)cc1", "note": "(stereo not given)", "AC40": "12.4 µM"}
{"compound": "Cn1cc(C2=C(c3ccc(Cl)cc3Cl)C(=O)NC2=O)c2ccccc21", "AC40": "6.16 µM"}
{"compound": "CCN1C(=O)[C@@H]2Cc3c([nH]c4ccccc34)C(c3cc(OC)c(OC)c(OC)c3)N2C1=S", "note": "(stereo not given in full)", "AC40": "> 19.5 µM (inactive)"}
{"compound": "CCN1/C(=C/c2ccc3cc(C)ccc3[n+]2CC)Sc2ccccc21", "AC40": "0.228 µM"}
{"compound": "Cc1cc(/C=C2\\SC(=S)N(Cc3ccco3)C2=O)c(C)n1-c1ccccc1", "AC40": "> 19.5 µM (inactive)"}
{"compound": "COc1ccc(C(=O)c2sc3nc(C)cc(-c4cccs4)c3c2N)cc1", "AC40": "7.57 µM"}
{"compound": "N=c1ccn2c(n1)OC1C(O)C(CO)OC12", "note": "(stereo not given)", "AC40": "19.1 µM"}
{"compound": "C=CCN1C(=O)[C@@H]2Cc3c([nH]c4ccccc34)C(c3cc(OC)c(OC)c(OC)c3)N2C1=S", "note": "(stereo not given in full)", "AC40": "> 19.5 µM (inactive)"}
{"compound": "O=[N+]([O-])c1ccc(C2=NN(c3ccccc3)C(c3ccco3)C2)cc1", "note": "(stereo not given)", "AC40": "2.25 µM"}
{"compound": "Cc1ccc(C(=O)c2oc3ccccc3c2NC(=O)c2cc(-c3ccccc3O)n[nH]2)cc1", "AC40": "12.8 µM"}
{"compound": "Nc1c(C(=O)c2ccccc2)sc2nsc(SCCN3CCCC3)c12", "AC40": "8.3 µM"}
{"compound": "CCN1CCc2c(sc(NC(=O)Nc3ccc(Cl)c(Cl)c3)c2C(N)=O)C1", "AC40": "0.196 µM"}
{"compound": "CCCN1CCN(C(=O)C2CCN(c3nnc(C)c4c(C)n(-c5ccc(C)cc5)nc34)CC2)CC1", "AC40": "8.7 µM"}
{"compound": "Cc1ccc(-c2cn3nc(-c4ccccc4)c(-c4ccccc4)nc3n2)cc1", "AC40": "7.27 µM"}
{"compound": "COc1ccc2nc(C)cc(NCc3ccc(F)cc3)c2c1", "AC40": "4.9 µM"}
{"compound": "c1ccc(-c2cnn3c(-c4ccccc4)c(-c4ccccc4)nc3n2)cc1", "AC40": "1.8 µM"}
{"compound": "Cc1c2c(cc3c1[nH]c1ccccc13)C=NCC2", "AC40": "9.27 µM"}
{"compound": "NC(=O)c1c(NC(=O)c2ccccc2)sc2c1CCN(Cc1ccccc1)C2", "AC40": "15.8 µM"}
{"compound": "COc1ccc(NC(=O)CCc2ccccc2)cc1S(=O)(=O)N1CCCCC1", "AC40": "17 µM"}
{"compound": "Cc1cc(C)c2cc3c(N)c(C(=O)Nc4c(C)[nH]c(=O)[nH]c4=O)sc3nc2c1", "AC40": "19.3 µM"}
{"compound": "CC(C)N1CCc2c(sc(NC(=O)c3ccc4ccccc4c3)c2C(N)=O)C1", "AC40": "13.3 µM"}
{"compound": "O=c1oc2cc(O)ccc2cc1-c1nc2c(s1)CCc1ccccc1-2", "AC40": "2.79 µM"}
{"compound": "CCN1CCc2c(sc(NC(=O)c3ccc(S(=O)(=O)N(CC)c4ccccc4)cc3)c2C(N)=O)C1", "AC40": "> 19.5 µM (inactive)"}
{"compound": "COc1ccc(C(=O)c2sc3nc(C)cc(-c4cccs4)c3c2N)cc1OC", "AC40": "> 19.5 µM (inactive)"}
{"compound": "CCOC(=O)C1=C(O)/C(=C/c2cc(OC)c(O)c(OC)c2)SC1=Nc1ccc(OC)cc1", "AC40": "18.3 µM"}
{"compound": "CC(NC(=O)/C(C#N)=C/c1ccc([N+](=O)[O-])o1)c1ccccc1", "note": "(stereo not given)", "AC40": "6.75 µM"}
{"compound": "Nc1[nH]c2cc([N+](=O)[O-])ccc2c1-c1ccccn1", "AC40": "4.61 µM"}
{"compound": "COc1cc(/C=C/c2ccc3cccc(O)c3n2)c(Br)cc1O", "AC40": "14 µM"}
{"compound": "CCOC(=O)Cn1c(=O)c(-c2cc(Br)ccc2N)nc2ccccc21", "AC40": "12.5 µM"}
{"compound": "CCC(CO)[n+]1c(C)cc(/C=C2\\Sc3ccccc3N2Cc2ccccc2)cc1C", "note": "(stereo not given)", "AC40": "1.55 µM"}
{"compound": "CC(C)CCN1CCN(Cc2cc3ccccc3[nH]2)CC1CCO", "note": "(stereo not given)", "AC40": "16.4 µM"}
{"compound": "COC1=CC(=O)c2c(ccc3ncnc(N)c23)C1=O", "AC40": "9.69 µM"}
{"compound": "CCCCN(C)C1=CC2=CC(=C(C#N)C#N)CCC2CC1", "note": "(stereo not given)", "AC40": "2.86 µM"}
{"compound": "COc1cc(NS(=O)(=O)c2ccc3ccccc3c2)c2ncccc2c1", "AC40": "> 19.5 µM (inactive)"}
{"compound": "CN(C)CCN(Cc1ccc(Cl)cc1)c1ccccn1", "AC40": "> 2.1 µM (inactive)"}
{"compound": "O=[N+]([O-])c1ccc(/C=C/C2=NN(c3ccccc3)C(c3ccco3)C2)cc1", "note": "(stereo not given)", "AC40": "1.81 µM"}
{"compound": "COC1C(CO)OC(n2c3c(Cl)cccc3c3c4c(c5c6cccc(Cl)c6[nH]c5c32)C(=O)NC4=O)C(O)C1O", "note": "(stereo not given)", "AC40": "13.8 µM"}
{"compound": "Cc1ccccc1OCC(O)CNC1CCC(NCC(O)COc2ccccc2C)CC1", "note": "(stereo not given)", "AC40": "> 19.5 µM (inactive)"}
{"compound": "O=[N+]([O-])c1c(Nc2ccc(O)cc2)cc(Cl)c2nonc12", "AC40": "8.92 µM"}
{"compound": "COc1cc2c3nnc(-c4ccc(F)cc4)c-3cn(Cc3ccccc3)c2cc1OC", "AC40": "1.23 µM"}
{"compound": "C[C@H]1CCCCO[C@H](CN(C)S(=O)(=O)c2ccc(Cl)cc2)[C@@H](C)CN([C@@H](C)CO)C(=O)c2cc(NC(=O)Nc3ccccc3)ccc2O1", "AC40": "> 19.5 µM (inactive)"}
{"compound": "CCN(CC)c1ccc2cc(C(=O)c3cccs3)c(=O)oc2c1", "AC40": "5.34 µM"}
{"compound": "CN(C)c1ccc(/C=C(/C#N)C(=O)NCc2ccccc2)o1", "AC40": "10.3 µM"}
{"compound": "O=CNc1ccc2c3c(cccc13)-c1ccccc1-2", "AC40": "5.85 µM"}
{"compound": "C/C(=N\\Nc1ncnc2sc(C)c(C)c12)c1ccccn1", "AC40": "0.784 µM"}
{"compound": "CN(C)S(=O)(=O)c1ccc2c(c1)/C(=C/c1cc3c([nH]1)CCCC3)C(=O)N2", "AC40": "1.58 µM"}
{"compound": "Cc1ccc(Cl)c2c(N=Nc3ccccc3)c(O)[nH]c12", "AC40": "7.83 µM"}
{"compound": "CCOC(=O)/C=c1\\s/c(=C\\c2ccc3cc(OC)ccc3c2)c(=O)n1CC(=O)NCc1ccc2c(c1)OCO2", "AC40": "7.15 µM"}
{"compound": "Cc1nonc1NC(=O)CSc1nc2c(C)cccc2cc1C#N", "AC40": "6.5 µM"}
{"compound": "CN1CCc2c(sc(NC(=O)c3ccc(S(=O)(=O)N4CCc5ccccc54)cc3)c2C(N)=O)C1", "AC40": "8.93 µM"}
{"compound": "COc1ccc(/C=C/C(=O)c2ccc([N+](=O)[O-])o2)cc1OC", "AC40": "14.3 µM"}
{"compound": "COc1ccc2c(n1)Sc1nc3ccccc3nc1N2", "AC40": "13.1 µM"}
{"compound": "Cc1cccc(NC(=O)/C=C/c2ccc([N+](=O)[O-])s2)c1", "AC40": "1.58 µM"}
{"compound": "COc1ccccc1-[n+]1c(C)cc(/C=C2\\Sc3ccccc3N2C)cc1C", "AC40": "0.249 µM"}
{"compound": "O=C(NC1CCCC1)c1cccc2c1C(=O)c1ccc(/C=C/c3ccccc3)cc1S2(=O)=O", "AC40": "5.54 µM"}
{"compound": "F[B-](F)(F)c1cnc2ccccc2c1", "AC40": "> 6.8 µM (inactive)"}
{"compound": "Cc1cccc2cc3c(N)c(C(=O)N4CCc5ccccc54)sc3nc12", "AC40": "14.1 µM"}
{"compound": "CC(=O)Nc1cc2c3c(cccc3c1)-c1ccccc1-2", "AC40": "2.56 µM"}
{"compound": "Nc1ccc2c3c(cccc13)-c1ccccc1-2", "AC40": "1.04 µM"}
{"compound": "CCN1/C(=C/c2ccc3cc(C)ccc3[n+]2CC)Sc2cc(C)c(C)cc21", "AC40": "1.29 µM"}
{"compound": "O=S(=O)(Nc1cc2nc3ccccc3nc2n1Cc1ccccc1)c1ccc(Cl)cc1", "AC40": "> 19.5 µM (inactive)"}
{"compound": "Cc1ccc(C(=O)N/C(=C/c2ccc(-c3ccc([N+](=O)[O-])cc3)o2)C(=O)NCCCN(C)C)cc1", "AC40": "4.28 µM"}
{"compound": "Cn1cc(/C=C/c2cc[n+](C)cc2)c2cc(Cl)ccc21", "AC40": "> 19.5 µM (inactive)"}
{"compound": "N#C/C(=C\\c1ccc([N+](=O)[O-])o1)c1nc2ccccc2[nH]1", "AC40": "1.26 µM"}
{"compound": "Nc1c(C(=O)c2cccs2)sc2nsc(SCCN3CCCCC3)c12", "AC40": "2.57 µM"}
